Key:
AGE-BSA = target: T1, AGE-BSA (Bos taurus, UniProt P02769); test: In-vitro AGE breaking activity by ELISA; type: biochemical, Bovine; conditions: 37° C., 24 hours
T1 construct: Bovine serum albumin (fraction V) (BSA); from tissue; host or cells: bovine serum (fraction V); glycated in house with 1.6 M glucose at 37 °C for 16 weeks
Experimental: AGE breaking activity has been confirmed by the screening procedure as mentioned below:
Methods of experiment: Elisa (Enzyme Linked Immunosorbent Assay)
160 mg/ml of protein, bovine serum albumin, BSA and 1.6M glucose sugar were dissolved in phosphate buffered saline, PBS. Sodium azide was added at 0.02% concentration as a preservative. The solution was filtered asceptically through a […] filter and kept for aging at 37° C. for 16 weeks. After 16 weeks the solution was dialyzed against PBS, aliquoted and stored at −20° C.
To determine the AGE breaking activity, 10 μg/ml of the 16 weeks AGE-BSA was incubated with different concentrations of the test compounds at 37° C. for 24 hours and AGE breaking activity of the test compounds by ELISA was determined.
ELISA was performed as follows
1. Different concentrations of 16 weeks AGE-BSA were coated on a microtiter plate as standard. Each concentration is coated in triplicates.
2. The test samples were coated on microtiter plate at a concentration of 5 ng to 20 ng per well in triplicates
3. The plate was incubated at 37° C. for one hour.
4. After incubation the plate was washed with PBST (PBS with 0.05% Tween 20).
5. Blocking with 5% skimmed milk in PBS at 37° C. for one hour was done.
6. The plate was washed with PBST.
7. Primary antibody against AGE-BSA was added and the plate is incubated at 37° C. for one hour.
8. The plate was washed with PBST
9. Secondary antibody anti rabbit HRPO (Horse-Radish Per Oxidase) conjugate was added and the plate is incubated at 37° C. for one hour.
10. The plate was washed with PBST.
11. Colour development with OPD (orthophenylenediamine dihydrochloride) and hydrogen peroxide was done.
12. OD (optical density) at (450 nm reading-620 nm reading) was measured after incubation at 37° C. for 15 minutes with Microplate ELISA Reader
The breaker activity of the compounds were determined by the following formula: [formula]
OD450-620Control=Absorbance of 20 ng AGE-BSA after incubation at 37° C. for 24 hours without test compound
OD450-620Test=Absorbance of 20 ng AGE-BSA after incubation at 37° C. for 24 hours with required concentration of test compound
Using specific examples, the % AGE breaking activity was calculated and recorded in Table 2.

[1] = Free radical scavenging activity on ABTS radical cation; type: biochemical
Experimental: This method measures the relative ability of free radical scavenging substances to scavenge the ABTS^.+ i.e. 2,2-Azino-bis-(3-ethyl benzo thiazoline-6-sulfonate) radical cation as compared to a standard amount of standard or free radical scavengers antioxidants. Incubation of ABTS with Peroxidase (metmyoglobin) and hydrogen peroxide results in the production of radical cation ABTS^.+. This species is blue-green in colour and can be detected at 730 nm. Antioxidants or free radical scavengers in the added sample that causes suppression of the color to a degree that is proportional to their concentration.
Preparation of Buffer Solutions
A. Phosphate Citrate Buffer (pH 5.0). 48.5 ml of 0.1M citric acid with sufficient 0.2M disodium hydrogen phosphate to produce 100 ml.
B. Phosphate Buffer Saline (PBS): Dissolve 40.0 g of NaCl, 1.0 g of KCl, 1.0 g of KH2PO4 and 3.05 g of Na2HPO4 in 1 liter milli-Q water. Dilute 200 ml of above solution to 1 liter with milli-Q water (pH 7.4-7.6).
C. 3 μM stock solution of Peroxidase was prepared in phosphate buffer saline pH 7.4(PBS).
D. 1.08 mM stock solution of Hydrogen peroxide was prepared in phosphate buffer saline pH 7.4 (PBS).
Preparation of ABTS Stock Solution
1 tablet (10 mg) was dissolved in phosphate citrate buffer (pH 5.0).
Preparation of ABTS Working Solution
5.0 ml of ABTS stock solution was diluted with PBS to 20 ml.
Preparation of Horse Radish Peroxidase Stock Solution
320 μg of the enzyme was dissolved in 2.5 ml of PBS.
Preparation of Hydrogen Peroxide (1.08 mM) Solution
12 μl of Hydrogen Peroxide (30% w/v) was diluted to 100 ml with PBS. […]
Preparation of ABTS Radical Stock Solution
To 18 ml of ABTS stock solution, 100 μl of Horseradish Peroxidase stock solution was added.
As soon as 1.5 ml of hydrogen peroxide solution was added to the above solution, blue-green colour of the ABTS radicals appeared. This solution was incubated at 30° C. for 30 min.
Preparation of Control Solution
980 μl of ABTS radical stock solution was added to an eppendorf tube. To it was added 100 μl of various PBS solution.
Preparation of test Solution
980 μl of ABTS radical stock solutions were added to different eppendorf tubes. To it were added 100 μl of various concentrations of drug solution.
Measurement of Absorbance (O.D)
The absorbance of control and test samples was recorded immediately at 730 nm taking PBS as blank.
Calculation: The percent antioxidant activity was calculated according to the formula. % Antioxidant activity=[O.D of test sample/O.D of control*100]−100.

T1 sequence (P02769 25-607): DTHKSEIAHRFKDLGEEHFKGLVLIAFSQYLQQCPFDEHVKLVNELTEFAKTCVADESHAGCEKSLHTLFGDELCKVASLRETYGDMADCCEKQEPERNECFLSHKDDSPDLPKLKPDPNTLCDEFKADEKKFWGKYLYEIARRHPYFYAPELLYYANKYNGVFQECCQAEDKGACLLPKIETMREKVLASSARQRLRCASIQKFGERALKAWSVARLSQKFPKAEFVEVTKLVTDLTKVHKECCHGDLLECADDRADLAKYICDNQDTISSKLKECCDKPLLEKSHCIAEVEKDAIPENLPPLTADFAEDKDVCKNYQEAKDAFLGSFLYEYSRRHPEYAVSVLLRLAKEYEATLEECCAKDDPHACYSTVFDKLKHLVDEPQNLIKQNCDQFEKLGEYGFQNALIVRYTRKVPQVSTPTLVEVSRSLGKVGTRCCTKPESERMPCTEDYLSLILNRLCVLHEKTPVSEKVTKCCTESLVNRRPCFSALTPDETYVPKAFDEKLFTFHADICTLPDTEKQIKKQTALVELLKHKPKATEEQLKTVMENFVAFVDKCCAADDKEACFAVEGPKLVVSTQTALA

O=C(NNC(=O)c1ccc[n+](CC(=O)c2cc([N+](=O)[O-])cs2)c1)c1ccc[n+](CC(=O)c2cc([N+](=O)[O-])cs2)c1.[Cl-].[Cl-] [Compound 56, N,N′-bis[3-carbonyl-1-(2-(4-nitrothien-2-yl)-2-oxoethyl)pyridinium]hydrazine dichloride]
% Breakage (AGE-BSA; 10 mM test compound): 75.92% | Relative Free Radical Scavenging Activity (%) on ABTS ([1]; 11.5 μM): 43.0% | Relative Free Radical Scavenging Activity (%) on ABTS ([1]; 23.0 μM): 57.2% | Relative Free Radical Scavenging Activity (%) on ABTS ([1]; 46.0 μM): 71.6% | Relative Free Radical Scavenging Activity (%) on ABTS ([1]; 92.5 μM): 97.7% | Relative Free Radical Scavenging Activity (%) on ABTS ([1]; 925 μM): 100%

Cc1ccc(C(=O)C[n+]2cccc(C(=O)NNS(C)(=O)=O)c2)s1.[Cl-] [Compound 63, 1-(2-(5-methylthien-2-yl)-2-oxoethyl)-3-(methanesulfonyl hydrazinocarbonyl)pyridinium chloride]
% Breakage (AGE-BSA; 10 mM test compound): 25.17% | Relative Free Radical Scavenging Activity (%) on ABTS ([1]; 11.5 μM): 10.75% | Relative Free Radical Scavenging Activity (%) on ABTS ([1]; 23.0 μM): 47.20% | Relative Free Radical Scavenging Activity (%) on ABTS ([1]; 46.0 μM): 88.64% | Relative Free Radical Scavenging Activity (%) on ABTS ([1]; 92.5 μM): 99.18%

CC(C)S(=O)(=O)NNC(=O)c1ccc[n+](CC(=O)c2cccs2)c1.[Br-] [Compound 50, 1-(2-thien-2′-yl-2-oxoethyl)-3-(isopropylsulfonyl hydrazinocarbonyl)pyridinium bromide]
% Breakage (AGE-BSA; 10 mM test compound): 31.45% | Relative Free Radical Scavenging Activity (%) on ABTS ([1]; 11.5 μM): 3.30% | Relative Free Radical Scavenging Activity (%) on ABTS ([1]; 23.0 μM): 23.06% | Relative Free Radical Scavenging Activity (%) on ABTS ([1]; 46.0 μM): 54.95% | Relative Free Radical Scavenging Activity (%) on ABTS ([1]; 92.5 μM): 89.31%

Cc1ccc(C(=O)NNC(=O)c2ccc[n+](CC(=O)c3cccs3)c2)c[n+]1CC(=O)c1cccs1.[Cl-].[Cl-] [Compound 49, 1-[1-(2-thien-2′yl-2-oxoethyl)-6-methyl-3-carbonylpyridinium]-2-[1-(2-Thien-2′-yl-2-oxoethyl)-3-carbonylpyridinium]hydrazine dichloride]
% Breakage (AGE-BSA; 2.5 mM test compound): 85.67%

Cc1ccc(C(=O)C[n+]2cccc(C(=O)NNC(=O)c3ccc[n+](CC(=O)c4ccc(C)s4)c3)c2)s1.[Cl-].[Cl-] [Compound 58, N,N′-bis[3-carbonyl-1-(2-(5-methylthien-2-yl)-2-oxoethyl)pyridinium]hydrazine dichloride]
% Breakage (AGE-BSA; 10 mM test compound): 81.95%

COCCNC(=O)c1cc(Br)c[n+](CC(=O)c2cccs2)c1.[Cl-] [Compound 47, 1-(2-thien-2′-yl-2-oxoethyl)-3-((2-methoxyethyl)aminocarbonyl)-5-bromo pyridinium chloride]
% Breakage (AGE-BSA; 10 mM test compound): 32.38%

CC(C)NC(=O)C[n+]1cccc(C(=O)NNS(C)(=O)=O)c1.[Cl-] [Compound 43, 1-(2-isopropylamino-2-oxoethyl)-3-(2-methylsulfonylhydrazinocarbonyl)-pyridinium chloride]
% Breakage (AGE-BSA; 10 mM test compound): 10.85%

CS(=O)(=O)NNC(=O)c1cc(Br)c[n+](CC(=O)c2cccs2)c1.[Br-] [Compound 53, 1-(2-thien-2′-yl-2-oxoethyl)-3-(methanesulfonyl hydrazinocarbonyl)-5-bromo pyridinium bromide]
% Breakage (AGE-BSA; 2.5 mM test compound): 29.36%

COCCNC(=O)c1ccc[n+](CC(=O)NC2CC2)c1.[Cl-] [Compound 40, 1-(2-cyclopropylamino-2-oxoethyl)-3-(2-methoxyethylaminocarbonyl)-pyridinium chloride]
% Breakage (AGE-BSA; 10 mM test compound): 12.38%

CCOC(=O)C1CCCN1C(=O)C[n+]1cccc(C(=O)NNS(C)(=O)=O)c1.[Cl-] (stereo not drawn) [Compound 52, 1-(2-(2-ethoxycarbonylpyrrolidin-1-yl)-2-oxoethyl)-3-(methanesulfonyl hydrazinocarbonyl)pyridinium chloride]
% Breakage (AGE-BSA; 10 mM test compound): 25.34%

CCOC(=O)C[n+]1cccc(C(=O)NCCOC(=O)c2ccccc2)c1.[Br-] [Compound 7, 1-(2-ethoxy-2-oxoethyl)-3-(2-(benzoyloxy)ethylaminocarbonyl)pyridinium bromide]
% Breakage (AGE-BSA; 20 mM test compound): 36%

CC(=O)OCCOC(=O)c1ccc[n+](CC(=O)c2ccccc2)c1.[Br-] [Compound 16, 1-(2-phenyl-2-oxoethyl)-3-(2-(acetoxy)ethyloxycarbonyl)pyridinium bromide]
% Breakage (AGE-BSA; 10 mM test compound): 16%

O=C(NNC(=O)c1ccc[n+](CC(=O)c2ccco2)c1)c1ccc[n+](CC(=O)c2ccco2)c1.[Br-].[Br-] [Compound 32, N,N′-bis[3-carbonyl-1-(2-furan-2′-yl-2-oxoethyl)pyridinium]hydrazine dibromide]
% Breakage (AGE-BSA; 10 mM test compound): 14%

O=C(C[n+]1cccc(C(=O)NNC(=O)c2ccc[n+](CC(=O)c3ccccc3)c2)c1)c1ccccc1.[Br-].[Br-] [Compound 1, N,N′-bis[3-carbonyl-1-(2-phenyl-2-oxoethyl)-pyridinium]hydrazine dibromide]
% Breakage (AGE-BSA; 5 mM test compound): 13%

CCCCNC(=O)c1ccc[n+](CC(=O)Nc2ccccc2)c1.[Cl-] [Compound 94, 1-(2-Phenylamino-2-oxoethyl)-3-(n-butylaminocarbonyl)pyridinium chloride]
% Breakage (AGE-BSA; 10 mM test compound): 27%

CCOC(=O)C[n+]1cccc(C(=O)NCCO)c1.[Br-] [Compound 87, 1-(2-Ethoxy-2-oxoethyl)-3-((2-hydroxyethyl)aminocarbonyl)pyridinium bromide]
% Breakage (AGE-BSA; 10 mM test compound): 43%

Cc1ccc(C(=O)NNS(C)(=O)=O)c[n+]1CC(=O)c1cccs1.[Br-] [Compound 57, 1-(2-thien-2′-yl-2-oxoethyl)-3-(methanesulfonyl hydrazinocarbonyl)-6-methyl pyridinium bromide]
% Breakage (AGE-BSA; 1 mM test compound): 77.69%

CCOC(=O)C1CSCN1C(=O)C[n+]1cccc(C(=O)NNS(C)(=O)=O)c1.[Cl-] (stereo not drawn) [Compound 61, 1-(2-(4-carboethoxy-thiazolidin-3-yl)-2-oxoethyl)-3-(methanesulfonyl hydrazinocarbonyl)pyridinium chloride]
% Breakage (AGE-BSA; 10 mM test compound): 25.06%

O=C(C[n+]1ccsc1)c1ccccc1.[Br-] [PTB, reference compound]
% Breakage (AGE-BSA; 10 mM test compound): 27% | % Breakage (AGE-BSA; 20 mM test compound): 47%

CCOC(=O)C[n+]1cccc(C(=O)OCCOC(=O)c2ccccc2)c1.[Br-] [Compound 17, 1-(2-ethoxy-2-oxoethyl)-3-(2-(benzoyloxy)ethyloxycarbonyl)pyridinium bromide]
% Breakage (AGE-BSA; 10 mM test compound): 19%

O=C(NNC(=O)c1cccnc1Cl)c1ccc[n+](CC(=O)c2cccs2)c1.[Cl-] [Compound 42, 1-(2-thien-2′yl-2-oxoethyl)-3-(2-(2-chloro-3-pyridoyl)hydrazinocarbonyl)-pyridinium chloride]
% Breakage (AGE-BSA; 10 mM test compound): 12.51%

NC(=O)c1ccc[n+](CC(=O)c2cccs2)c1.[Br-] [Compound 85, 3-Carbonylamino-1-(2-thien-2′-yl-2-oxoethyl)-pyridinium bromide]
% Breakage (AGE-BSA; 10 mM test compound): 3%
